The text below walks through data of patent publication US11185527B2, “Methods and compositions relating to steroid hormone receptor-dependent cancers” (Wayne State University, priority 2017, dated 2021).

This experiment has as its system ARE-dependent promoter activation by AR. As to the kind of experiment: Counter screening assay: ARE-luciferase reporter in recombinant HeLa cells expressing AR. The format is cell-based, human. Particulars: testosterone-treated recombinant HeLa cells. An excerpt: FIG. 6B is a schematic diagram of the reporter system for the counter screening assay. Recombinant HeLa cells used in this assay are identical to the primary screening cells except for the absence of Gal4-ELK1 and substitution of the Gal4 elements in the promoter with a canonical ARE. In this case, testosterone causes cytosolic AR to translocate to the nucleus and bind to the ARE in the promoter resulting in activation of the luciferase reporter.
The cells generated for counter screening, are HeLa cells stably transduced with a lentiviral plasmid construct containing a minimal promoter-luciferase reporter and an upstream androgen response element (ARE) sequence. These HeLa cells were also transduced with a lentiviral expression plasmid encoding the full-length AR. These lentiviral constructs were made as follows. Custom synthesized PCR primers were used to amplify and clone the ARE sequence from a pG5luc plasmid construct containing an ARE sequence element into the pGreenFire1 ™-mCMV-EF1-Neo (Plasmid) at SpeI (upstream) and BamHI (downstream) sites. pG5luc Vector is well known and the complete sequence has NCBI accession #AF264724. The ARE containing pG5luc plasmid is described in detail in Patki et al., 2013, J Biol Chem, 288:11047-11065. The lentiviral vector expressing ARE-luciferase reporter was then packaged in lentivirus and parental HeLa cells were infected as described below under the heading “Lentivirus-mediated-Transduction.” After 72h of infection, 400 ug/mL of Geneticin was added to the culture medium to select for the transduced cells. These cells were then infected with the lentivirus containing the full length AR expression plasmid described above. After 72h of infection, 2 ug/mL of Puromycin was added to the culture medium to select for the transduced cells. Clonal cells harboring both the ARE-promoter-luciferase reporter and also stably expressing AR were then isolated using cloning cylinders as described above. The selected clones were further expanded and then tested for luciferase induction by testosterone. The clone that gave the greatest luciferase signal to noise ratio in response to testosterone treatment was then chosen for use in the counter screening assay for high throughput small molecule screening. All of the plasmid constructs generated above were sequenced to verify DNA sequences before, the constructs were used.
For high throughput screening, recombinant primary screening cells were first depleted of hormone by growing them for 24h in medium in which the serum used was heat-inactivated and charcoal-stripped. The cells were then plated in 384-well white flat bottom plates (5,000 cells/well) (Corning Product #3570) using a Multidrop (Thermo Fisher Scientific, Waltham, Mass.). […]
For orientation: Counterscreens check selectivity or assay interference.

`CNC(=O)c1ccc(N2C(=S)N(c3ccc(C#N)c(C(F)(F)F)c3)C(=O)C2(C)C)cc1F` [enzalutamide]: the “inhibition of ARE-dependent promoter activation by AR (in words)” value is on record as “completely suppressed the signal”.
